Data from patent publication US8192962B2, “Processes for detecting toxic substances” (Daikin Industries, Ltd., priority 2001, dated 2012).

System: Genes belonging to other category
Test: DNA chip mRNA expression in yeast, genes belonging to other category (Table 9)
Type: cell-based, Saccharomyces cerevisiae S288C
How it was run: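 S. cerevisiae S288C grown at 25° C in YPD were exposed in log phase for two hours to one toxic chemical at a growth-inhibiting, non-lethal concentration; untreated cells served as control. Poly(A) mRNA was reverse-transcribed with Cy3/Cy5-dUTP and hybridized to a whole-genome yeast DNA chip at 65° C for over 12 hours; values are fluorescence ratios versus untreated.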

## C[S+](C)[O-] [(15), dimethylsulfoxide]
Yeast gene YAR010C
  The level of expressed mRNA in the presence of chemical substance/The level of expressed mRNA in the absence of chemical substance: 1.8
Yeast gene YBL005W-A
  The level of expressed mRNA in the presence of chemical substance/The level of expressed mRNA in the absence of chemical substance: 0.9
Yeast gene YBL041W
  The level of expressed mRNA in the presence of chemical substance/The level of expressed mRNA in the absence of chemical substance: 1.3
Yeast gene YBL043W
  The level of expressed mRNA in the presence of chemical substance/The level of expressed mRNA in the absence of chemical substance: 1.8
Yeast gene YBR109C
  The level of expressed mRNA in the presence of chemical substance/The level of expressed mRNA in the absence of chemical substance: 1.4
Yeast gene YBR201W
  The level of expressed mRNA in the presence of chemical substance/The level of expressed mRNA in the absence of chemical substance: 1.6
Yeast gene YBR214W
  The level of expressed mRNA in the presence of chemical substance/The level of expressed mRNA in the absence of chemical substance: 5.1
Yeast gene YCL027W
  The level of expressed mRNA in the presence of chemical substance/The level of expressed mRNA in the absence of chemical substance: 3.6
Yeast gene YCR004C
  The level of expressed mRNA in the presence of chemical substance/The level of expressed mRNA in the absence of chemical substance: 0.8
Yeast gene YCR088W
  The level of expressed mRNA in the presence of chemical substance/The level of expressed mRNA in the absence of chemical substance: 2.8
Yeast gene YDL007W
  The level of expressed mRNA in the presence of chemical substance/The level of expressed mRNA in the absence of chemical substance: 1.4
Yeast gene YDL008W
  The level of expressed mRNA in the presence of chemical substance/The level of expressed mRNA in the absence of chemical substance: 0.7
Yeast gene YDL126C
  The level of expressed mRNA in the presence of chemical substance/The level of expressed mRNA in the absence of chemical substance: 1.7
Yeast gene YDL238C
  The level of expressed mRNA in the presence of chemical substance/The level of expressed mRNA in the absence of chemical substance: 1.3
Yeast gene YDR055W
  The level of expressed mRNA in the presence of chemical substance/The level of expressed mRNA in the absence of chemical substance: 5.7
Yeast gene YDR085C
  The level of expressed mRNA in the presence of chemical substance/The level of expressed mRNA in the absence of chemical substance: 3.1
Yeast gene YDR104C
  The level of expressed mRNA in the presence of chemical substance/The level of expressed mRNA in the absence of chemical substance: 1.4
Yeast gene YDR115W
  The level of expressed mRNA in the presence of chemical substance/The level of expressed mRNA in the absence of chemical substance: 0.8
Yeast gene YDR259C
  The level of expressed mRNA in the presence of chemical substance/The level of expressed mRNA in the absence of chemical substance: 2.9
Yeast gene YDR315C
  The level of expressed mRNA in the presence of chemical substance/The level of expressed mRNA in the absence of chemical substance: 1.5
Yeast gene YDR358W
  The level of expressed mRNA in the presence of chemical substance/The level of expressed mRNA in the absence of chemical substance: 0.9
Yeast gene YDR388W
  The level of expressed mRNA in the presence of chemical substance/The level of expressed mRNA in the absence of chemical substance: 2.6
Yeast gene YDR432W
  The level of expressed mRNA in the presence of chemical substance/The level of expressed mRNA in the absence of chemical substance: 2.6
Yeast gene YDR481C
  The level of expressed mRNA in the presence of chemical substance/The level of expressed mRNA in the absence of chemical substance: 3.5
Yeast gene YDR510W
  The level of expressed mRNA in the presence of chemical substance/The level of expressed mRNA in the absence of chemical substance: 2.2
Yeast gene YEL066W
  The level of expressed mRNA in the presence of chemical substance/The level of expressed mRNA in the absence of chemical substance: 1.0
Yeast gene YER107C
  The level of expressed mRNA in the presence of chemical substance/The level of expressed mRNA in the absence of chemical substance: 0.7
Yeast gene YER159C
  The level of expressed mRNA in the presence of chemical substance/The level of expressed mRNA in the absence of chemical substance: 2.2
Yeast gene YFL028C
  The level of expressed mRNA in the presence of chemical substance/The level of expressed mRNA in the absence of chemical substance: 0.8
Yeast gene YGL158W
  The level of expressed mRNA in the presence of chemical substance/The level of expressed mRNA in the absence of chemical substance: 2.3
Yeast gene YGL229C
  The level of expressed mRNA in the presence of chemical substance/The level of expressed mRNA in the absence of chemical substance: 0.2
Yeast gene YGR136W
  The level of expressed mRNA in the presence of chemical substance/The level of expressed mRNA in the absence of chemical substance: 2.6
Yeast gene YGR213C
  The level of expressed mRNA in the presence of chemical substance/The level of expressed mRNA in the absence of chemical substance: 6.5
Yeast gene YGR257C
  The level of expressed mRNA in the presence of chemical substance/The level of expressed mRNA in the absence of chemical substance: 1.3
Yeast gene YHR071W
  The level of expressed mRNA in the presence of chemical substance/The level of expressed mRNA in the absence of chemical substance: 3.0
Yeast gene YHR139C
  The level of expressed mRNA in the presence of chemical substance/The level of expressed mRNA in the absence of chemical substance: 1.9
Yeast gene YIL140W
  The level of expressed mRNA in the presence of chemical substance/The level of expressed mRNA in the absence of chemical substance: 3.3
Yeast gene YJL030W
  The level of expressed mRNA in the presence of chemical substance/The level of expressed mRNA in the absence of chemical substance: 1.5
Yeast gene YJL073W
  The level of expressed mRNA in the presence of chemical substance/The level of expressed mRNA in the absence of chemical substance: 2.6
Yeast gene YJL116C
  The level of expressed mRNA in the presence of chemical substance/The level of expressed mRNA in the absence of chemical substance: 1.0
Yeast gene YJR004C
  The level of expressed mRNA in the presence of chemical substance/The level of expressed mRNA in the absence of chemical substance: 3.2
Yeast gene YJR029W
  The level of expressed mRNA in the presence of chemical substance/The level of expressed mRNA in the absence of chemical substance: 1.8
Yeast gene YJR086W
  The level of expressed mRNA in the presence of chemical substance/The level of expressed mRNA in the absence of chemical substance: 2.0
Yeast gene YJR099W
  The level of expressed mRNA in the presence of chemical substance/The level of expressed mRNA in the absence of chemical substance: 0.5
Yeast gene YJR122W
  The level of expressed mRNA in the presence of chemical substance/The level of expressed mRNA in the absence of chemical substance: 0.8
Yeast gene YKL008C
  The level of expressed mRNA in the presence of chemical substance/The level of expressed mRNA in the absence of chemical substance: 1.3
Yeast gene YKL039W
  The level of expressed mRNA in the presence of chemical substance/The level of expressed mRNA in the absence of chemical substance: 3.1
Yeast gene YKL041W
  The level of expressed mRNA in the presence of chemical substance/The level of expressed mRNA in the absence of chemical substance: 1.0
Yeast gene YKL096W
  The level of expressed mRNA in the presence of chemical substance/The level of expressed mRNA in the absence of chemical substance: 2.3
Yeast gene YKL139W
  The level of expressed mRNA in the presence of chemical substance/The level of expressed mRNA in the absence of chemical substance: 1.0
